# Assays:
# Format in all cases: cell-based
# [1] = system: primary human total T-cells; experiment: T-cell activation assessed by cell proliferation (Cell Trace Violet)
# Text: (§1) Peripheral blood mononuclear cells (PBMC) were obtained either: 1) by using Ficoll-Paque™ (GE Healthcare) for separation of peripheral blood hematopoietic cells from buffy coats of healthy human donors; or 2) directly from FeukoPak donations. Total human primary T-cells were isolated from the PMBCs utilizing negative selection with commercial kits following the manufacturer's protocol (Miltenyi Catalog #130-096-535 (i.e., cocktail of antibodies against surface markers CD14, CD15, CD16, CD19, CD34, CD36, CD56, CD123 and CD235a are incubated with the PBMCs before passing the samples by magnetic beads for removal of cells expressing those surface markers) or StemCells Catalog #17951) to yield >95% CD3+ cells as assessed by flow cytometry. For measurement of cell proliferation, cells were labeled with Cell Trace Violet (Invitrogen) following manufacturer's protocol prior to activation by stimulation with anti-CD3 antibody alone or in combination with anti-CD28 antibody. The Cbl-b inhibitor was added to 1×10^5 cells per well at multiple concentrations (e.g., 10 μM, 1.11 μM, or 0.123 μM) with a final DMSO concentration of <0.1%. The plate was incubated for one hour at 37° C. in 5% CO2. Following incubation with the Cbl-b inhibitor, primary human total T-cells were stimulated with either plate bound anti-CD3 antibody (OKT3) alone or plate bound anti-CD3 antibody (OKT3) with soluble anti-CD28 antibody (28.2) (Life Technologies). To prepare plates with plate bound anti-CD3 antibody (OKT3), 96-well round bottom tissue culture plates were coated with 100 μl of anti-CD3 antibody (OKT3) at 10 μg/mL for 4 hours at 37° C. 5% CO2 in phosphate buffered saline (PBS). The plates were washed with PBS prior to adding the cells with or without soluble anti-CD28 antibody (28.2) to each well at a final concentration of 5 μg/mL. Cells were stimulated for 48 hours prior to harvesting the cell free supernatant and staining the cell population for surface marker assessment by flow cytometry. Supernatants were analyzed for cytokine secretion (e.g., GM-CSF, IFNγ and TNFα) by ELISA (R&D Systems, Peprotech or Life Technologies) or Luminex multiplex kits (Procarta Life Technologies) following manufacturer's protocol. Cells were stained with anti-CD69 (BD Biosciences) to assess levels of surface markers of activation. Proliferation was measured by flow cytometry and data was analyzed with FlowJo v7.6.5 or v10. Readouts were reported as fold change over baseline. In some embodiments, baseline was the measurement obtained from total human T-cells stimulated with anti-CD3 antibody alone, wherein the cells were not incubated with a Cbl-b inhibitor. In some embodiments, baseline was the measurement obtained from total human T-cells stimulated with anti-CD3 antibody and anti-CD28 antibody, where the cells were not incubated with a Cbl-b inhibitor.
# (§2) Cbl-b inhibitors were tested to determine their ability to induce or enhance secretion of cytokines from T-cells (e.g., GM-CSF, IFNγ and TNFα) and/or surface expression of cell surface markers on T-cells (e.g., CD69) that is indicative of T-cell activation. Cbl-b inhibitors were also tested to determine their ability to induce or enhance T-cell proliferation. Cbl-b inhibitors were tested for their effects on T-cell activation in the presence of costimulation and where conditions were suboptimal for priming.
# (§3) Readouts for T-cell activation were reported as fold change over baseline. Baseline for this study was the measurement obtained from total human T-cells stimulated with anti-CD3 antibody alone or anti-CD3 antibody in combination with soluble anti-CD28 antibody, where the cells were not incubated with a Cbl-b inhibitor. For T-cells stimulated with anti-CD3/anti-CD28 or with anti-CD3 alone changes greater than 1,2-fold over baseline for % positive CD69 staining and greater than 2-fold over baseline for % total proliferating cells were considered a significant and positive response (Table 4a). […]
# [2] = system: primary human total T-cells; experiment: T-cell activation assessed by CD69 expression
# Text: as §1, §2, §3
# [3] = system: primary human total T-cells; experiment: T-cell activation assessed by cytokine secretion (GM-CSF, IFNγ, TNFα)
# Text: as §1, §2, §3
# [4] = CD3/CD28 stimulation, CD4 T-cells, read-out: % CP (cell proliferation) (CD4)
# [5] = CD3/CD28 stimulation, CD8 T-cells, read-out: % CP (cell proliferation) (CD8)
# [6] = CD3 alone stimulation, CD8 T-cells, read-out: % CP (cell proliferation) (CD8)
# [7] = CD3/CD28 stimulation, CD4 T-cells, read-out: % CD69+ (CD4)
# [8] = CD3/CD28 stimulation, CD8 T-cells, read-out: % CD69+ (CD8)
# [9] = CD3 alone stimulation, CD4 T-cells, read-out: % CD69+ (CD4)
# [10] = CD3 alone stimulation, CD8 T-cells, read-out: % CD69+ (CD8)
# [11] = CD3/CD28 stimulation, read-out: GM-CSF secretion
# [12] = CD3/CD28 stimulation, read-out: IFNγ secretion
# [13] = CD3/CD28 stimulation, read-out: TNFα secretion
# [14] = CD3 alone stimulation, read-out: GM-CSF secretion
# [15] = CD3 alone stimulation, read-out: IFNγ secretion
# [16] = CD3 alone stimulation, read-out: TNFα secretion
SMILES,"fold induction at 1.11 µM [1, 4]","fold induction at 10 µM [1, 4]","fold induction at 1.11 µM [1, 5]","fold induction at 10 µM [1, 5]","fold induction at 1.11 µM [1, 6]","fold induction at 10 µM [1, 6]","fold induction at 1.11 µM [2, 7]","fold induction at 10 µM [2, 7]","fold induction at 1.11 µM [2, 8]","fold induction at 10 µM [2, 8]","fold induction at 1.11 µM [2, 9]","fold induction at 10 µM [2, 9]","fold induction at 1.11 µM [2, 10]","fold induction at 10 µM [2, 10]","fold induction at 1.11 µM [3, 11]","fold induction at 1.11 µM [3, 12]","fold induction at 1.11 µM [3, 13]","fold induction at 10 µM [3, 11]","fold induction at 10 µM [3, 12]","fold induction at 10 µM [3, 13]",other results
"C[C@H](Cc1nncn1C)c1cccc(N2Cc3c(cc(CN4CC(O)C4)cc3C(F)(F)F)C2=O)c1 [Compound 393, (R)-6-((3-hydroxyazetidin-1-yl)methyl)-2-(3-(1-(4-methyl-4H-1,2,4-triazol-3-yl)propan-2-yl)phenyl)-4-(trifluoromethyl)isoindolin-1-one]",< 2,3.01 to 4,< 2,2.01 to 3,< 2,< 2,≤ 1.2,1.2 to 1.4,≤ 1.2,≤ 1.2,1.2 to 1.4,1.2 to 1.4,≤ 1.2,≤ 1.2,≤ 1.5,2.01 to 3,≤ 1.5,1.51 to 2,> 4,1.51 to 2,"fold induction at 1.11 µM [3, 14]: ≤ 1.5; fold induction at 1.11 µM [3, 15]: < 2; fold induction at 1.11 µM [3, 16]: ≤ 1.5; fold induction at 10 µM [3, 14]: ≤ 1.5; fold induction at 10 µM [3, 15]: < 2; fold induction at 10 µM [3, 16]: ≤ 1.5"
C[C@H](Cc1nncn1C)c1cccc(N2Cc3c(cc(CN4CC(C)(O)C4)cc3C(F)(F)F)C2=O)c1 [Compound 397],> 4,> 4,3.01 to 4,> 4,> 4,> 4,1.4 to 1.6,1.4 to 1.6,1.2 to 1.4,1.2 to 1.4,> 1.6,> 1.6,1.2 to 1.4,1.4 to 1.6,2.01 to 4,2.01 to 3,2.01 to 4,> 4,> 4,2.01 to 4,"fold induction at 1.11 µM [3, 14]: 2.01 to 4; fold induction at 1.11 µM [3, 15]: < 2; fold induction at 1.11 µM [3, 16]: 1.51 to 2; fold induction at 10 µM [3, 14]: 2.01 to 4; fold induction at 10 µM [3, 15]: < 2; fold induction at 10 µM [3, 16]: 1.51 to 2"
"C[C@H](Cc1nncn1C)c1cccc(N2Cc3c(cc(CN4CC[C@](C)(O)C4)cc3C(F)(F)F)C2=O)c1 [Compound 398, 6-(((S)-3-hydroxy-3-methylpyrrolidin-1-yl)methyl)-2-(3-((R)-1-(4-methyl-4H-1,2,4-triazol-3-yl)propan-2-yl)phenyl)-4-(trifluoromethyl)isoindolin-1-one]",> 4,> 4,3.01 to 4,> 4,> 4,> 4,1.4 to 1.6,1.4 to 1.6,1.2 to 1.4,1.2 to 1.4,> 1.6,> 1.6,1.2 to 1.4,1.4 to 1.6,2.01 to 4,3.01 to 4,2.01 to 4,> 4,> 4,2.01 to 4,"fold induction at 1.11 µM [3, 14]: 2.01 to 4; fold induction at 1.11 µM [3, 15]: < 2; fold induction at 1.11 µM [3, 16]: ≤ 1.5; fold induction at 10 µM [3, 14]: > 4; fold induction at 10 µM [3, 15]: < 2; fold induction at 10 µM [3, 16]: 2.01 to 4"
"C[C@H](Cc1nncn1C)c1cccc(N2Cc3c(cc(CN4CC[C@H](F)C4)cc3C(F)(F)F)C2=O)c1 [Compound 399, 6-(((S)-3-fluoropyrrolidin-1-yl)methyl)-2-(3-((R)-1-(4-methyl-4H-1,2,4-triazol-3-yl)propan-2-yl)phenyl)-4-(trifluoromethyl)isoindolin-1-one]",> 4,> 4,> 4,> 4,> 4,> 4,> 1.6,> 1.6,1.2 to 1.4,1.2 to 1.4,> 1.6,> 1.6,1.4 to 1.6,1.4 to 1.6,> 4,> 4,2.01 to 4,> 4,> 4,2.01 to 4,"fold induction at 1.11 µM [3, 14]: 2.01 to 4; fold induction at 1.11 µM [3, 15]: 3.01 to 4; fold induction at 1.11 µM [3, 16]: 2.01 to 4; fold induction at 10 µM [3, 14]: > 4; fold induction at 10 µM [3, 15]: > 4; fold induction at 10 µM [3, 16]: 1.51 to 2"
"C[C@@H](c1cc2c(c(C(F)(F)F)c1)CN(c1cccc(C3(Cc4nncn4C)COC3)c1)C2=O)N1CC[C@H](F)C1 [Compound 412, 6-((S)-1-((S)-3-fluoropyrrolidin-1-yl)ethyl)-2-(3-(3-((4-methyl-4H-1,2,4-triazol-3-yl)methyl)oxetan-3-yl)phenyl)-4-(trifluoromethyl)isoindolin-1-one]",> 4,> 4,> 4,> 4,> 4,> 4,1.4 to 1.6,1.4 to 1.6,1.2 to 1.4,1.2 to 1.4,> 1.6,> 1.6,1.4 to 1.6,1.4 to 1.6,> 4,> 4,2.01 to 4,> 4,> 4,> 4,"fold induction at 1.11 µM [3, 14]: > 4; fold induction at 1.11 µM [3, 15]: 3.01 to 4; fold induction at 1.11 µM [3, 16]: 1.51 to 2; fold induction at 10 µM [3, 14]: > 4; fold induction at 10 µM [3, 15]: > 4; fold induction at 10 µM [3, 16]: 2.01 to 4"

# — patent US20220324835A1 (Nurix Therapeutics, Inc., priority 2018, published 2022)
